Source: patent US6774143B1, “Method for treating cells resistant to antineoplastic agents” (Novartis AG, priority 2003, dated 2004)

Legend:
Experiment in all cases: In vivo hollow fiber assay in nude mice
1A9 cell line = test system: 1A9 cell line
Procedure: (§1) PVDF hollow fibers (Spectrum, Gardena, Calif.) are soaked in 70% EtOH for 72 hours before use. After this step, all handling of fibers are done under a biological laminar flow hood using aseptic procedures. Individual fibers are flushed with 3 mL of the ice-cold tissue culture media using a syringe equipped with a 20-gauge needle. Next, each fiber is filled with an appropriate cell suspension (1×10^6 cells/mL for the 1A9 and 1A9PTX22 cells, and 0.5×10^6 cells/mL for the LS 174T cells), and both ends of the fiber are sealed with a hot flat needle holder. The entire length of the fiber is then sealed into 1.5 cm microcapsules (further called “hollow fibers”), each containing approximately 15 uL of the appropriate cell suspension. After separation, individual hollow fibers are placed in 6 well plates (6 fibers in 5 mL media per well), and are incubated overnight at 37° C. in the tissue culture incubator.
(§2) Outbred athymic (nu/nu) female mice (“Chrls:Athymic Nude-nu”, Charles River Laboratories, Wilmington, Mass.) are anesthetized with ip injections of Ketamine/Xylazine (150 mg/kg, and 12 mg/kg body weight, respectively). For the subcutaneous implantation an 11-gauge trocar containing one or two hollow fibers is inserted into an incision made with scissors at the nape of the neck of an animal, and fibers are released by retracting the trocar while depressing the plunger. This procedure is repeated until all three hollow fibers are implanted. One wound clip is used to close the skin incision After the surgery each animal receives a single, subcutaneous injection of 0.4 mg/kg butorphenol to relieve any potential pain. Animals recover from the anesthesia on a heating pad, before retuning to their cages.
(§3) One day after the implantation (3 hollow fibers/animal, each hollow fiber containing one cell line: LS 174T, 1A9, and 1A9PTX22) animals are randomly sorted into five groups of six mice/group. The first group is sacrificed; hollow fibers are retrieved, and processed according to a published procedure (Hollingshead M G, et al. Life Sciences 1995, 57(2):131-141), to determine the number of viable cells in each fiber (T0.)
(§4) On day 6 all animals are sacrificed, and hollow fibers are retrieved, and processed according to Hollingshead, M G, (supra) to determine the number of viable cells in each fiber (T—for fibers from animals treated with experimental compounds, C—for fibers from animals treated with corresponding vehicles). Antitumor activity is expressed as % Mean ΔT/Mean ΔC [comparing cell growth for treatment group to vehicle control group, where % Mean ΔT/Mean ΔC=(Mean T—Mean T0/Mean C—Mean T0)×100%]. Regressions are calculated using the formula: (1−Mean T/Mean T0)×100%. Statistical significance of the results is uniformly evaluated using a two-tailed Student's t-test.
(§5) Discodermolide is isolated from the sponge Discodermia dissoluta using the method of Gunasekera SP (supra). Multiple batches of compound of similar purity (all>95% pure, as determined by mass spectrometry, and nuclear magnetic resonance analysis) are used throughout the various studies. For the in vitro cytotoxicity assays all compounds are dissolved in DMSO and are added to the plates with cells to obtain desired concentrations. […] Paclitaxel is purchased from Sigma/Aldrich, (St. Louis, Mo.). For the in vivo hollow fiber assay, solid discodermolide is dissolved in pure ethanol to create a stock solution which is diluted just before dosing with Cremophor EL and D5W to a final concentration of 16.7% Cremophor EL, 8.3% ethanol and 75% D5W. The compound is administered to mice as a single, 15 mg/kg iv injection. Positive control animals receive clinical formulations of paclitaxel (TAXOL) diluted 4-fold with D5W (12.5% Cremophor El, 12.5% ethanol and 75% D5W final concentrations) and administered iv, at 15 mg/kg, once daily for five consecutive days. Vehicle controls are administered according to the corresponding drug schedules.

1A9PTX22 cell line = test system: 1A9PTX22 cell line
Procedure: as §1, §2, §3, §4, §5

LS 174T cell line = test system: LS 174T cell line
Procedure: as §1, §2, §3, §4, §5

[1] = first experiment, discodermolide single 15 mg/kg iv
[2] = second experiment, discodermolide single 15 mg/kg iv
[3] = first experiment, paclitaxel iv 15 mg/kg once daily for 5 days
[4] = second experiment, paclitaxel iv 15 mg/kg once daily for 5 days

| SMILES | T/C (1A9 cell line; [1]) [%] | T/C (1A9 cell line; [2]) [%] | T/C (1A9PTX22 cell line; [1]) [%] | regression (1A9PTX22 cell line; first study, discodermolide single 15 mg/kg iv, p<0.01) [%] | T/C (1A9PTX22 cell line; [2]) [%] | T/C (LS 174T cell line; [1]) [%] | T/C (LS 174T cell line; [2]) [%] | T/C (1A9 cell line; [3]) [%] | T/C (1A9 cell line; [4]) [%] | T/C (1A9PTX22 cell line; [3]) [%] | T/C (1A9PTX22 cell line; [4]) [%] | T/C (LS 174T cell line; [3]) [%] | T/C (LS 174T cell line; [4]) [%] |
| --- | --- | --- | --- | --- | --- | --- | --- | --- | --- | --- | --- | --- | --- |
| C=C/C=C\[C@H](C)[C@H](OC(N)=O)[C@@H](C)[C@H](O)[C@@H](C)C/C(C)=C\[C@H](C)[C@@H](O)[C@@H](C)/C=C\[C@@H](O)C[C@@H]1OC(=O)[C@H](C)[C@@H](O)[C@H]1C [discodermolide, (+)-Discodermolide] | 8 | 14 | −13 | 13 | 13 | 7 | 13 |  |  |  |  |  |  |
| CC(=O)O[C@H]1C(=O)[C@@]2(C)[C@H]([C@H](OC(=O)c3ccccc3)[C@]3(O)C[C@H](OC(=O)[C@H](O)[C@@H](NC(=O)c4ccccc4)c4ccccc4)C(C)=C1C3(C)C)[C@]1(OC(C)=O)CO[C@@H]1C[C@@H]2O [paclitaxel, reference compound] |  |  |  |  |  |  |  | −8 | 2 | 79 | 90 | 3 | 8 |
